Experimental data published in ChEMBL document CHEMBL2029344, “A new class of prolylcarboxypeptidase inhibitors, part 2: the aminocyclopentanes” (Bioorg Med Chem Lett, 2012).
pIC50, pKi: −log10 of the molar value.

What was measured:
[1] = molecular target: T1, Lysosomal Pro-X carboxypeptidase (Mus musculus, UniProt Q7TMR0); test: Inhibition of mouse PrCP
T1 sequence (Q7TMR0 whole entry): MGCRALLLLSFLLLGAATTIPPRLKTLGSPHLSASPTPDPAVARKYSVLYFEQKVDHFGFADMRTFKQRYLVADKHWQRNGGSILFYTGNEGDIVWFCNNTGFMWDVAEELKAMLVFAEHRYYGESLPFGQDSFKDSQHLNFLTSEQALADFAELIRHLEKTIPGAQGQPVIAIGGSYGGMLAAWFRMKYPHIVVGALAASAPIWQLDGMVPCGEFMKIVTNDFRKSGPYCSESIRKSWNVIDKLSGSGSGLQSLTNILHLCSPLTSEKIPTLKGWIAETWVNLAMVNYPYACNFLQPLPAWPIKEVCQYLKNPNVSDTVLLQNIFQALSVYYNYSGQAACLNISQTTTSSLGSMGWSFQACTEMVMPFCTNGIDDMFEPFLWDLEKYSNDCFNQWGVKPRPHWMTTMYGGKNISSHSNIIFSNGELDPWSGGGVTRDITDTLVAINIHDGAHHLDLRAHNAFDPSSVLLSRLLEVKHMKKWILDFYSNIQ

[2] = Stability in mouse liver microsomes after 30 mins by LC/MS analysis; assay type: ADME, Microsome; conditions: read-out: Stability
[3] = Stability in human liver microsomes after 30 mins by LC/MS analysis; assay type: ADME, Microsome; conditions: read-out: Stability
[4] = Percentage unbound in 10% human plasma; assay type: ADME, cell-free
[5] = Percentage unbound in 10% mouse plasma; assay type: ADME, cell-free
[6] = molecular target: Mus musculus; test: Ex-vivo inhibition of po dosed mouse PrCP by FRET analysis in presence of heat inactivated 100% plasma; assay type: functional, organism-based
[7] = molecular target: Mus musculus; test: Ex-vivo inhibition of po dosed mouse PrCP by FRET analysis in absence of plasma; assay type: functional, organism-based
[8] = molecular target: Mus musculus; test: Ex-vivo inhibition of po dosed mouse PrCP by FRET analysis in presence of heat inactivated 25% plasma; assay type: functional, organism-based
[9] = test system: Mus musculus; test: Ex-vivo inhibition of PrCP in heat inactivated 100% plasma of C57 mouse assessed as target engagement calculated as [cmpd]plasma/([cmpd]plasma + Ki (heat inactivated plasma))x100 at 30 mg/kg, po after 20 hrs by FRET analysis; assay type: functional; set-up: scale not given: the % may be the effect or the level left
[10] = Volume of distribution in mouse at 1 mg/kg, iv and 30 mg/kg, po; assay type: ADME, organism-based; conditions: in vivo
[11] = Drug uptake in C57 mouse plasma at 10 mg/kg, po after 20 hrs by LC/MS analysis; assay type: ADME, organism-based; set-up: dose 10 mg/kg, route oral
[12] = Oral bioavailability in mouse at 30 mg/kg; assay type: ADME, organism-based; conditions: in vivo
[13] = test system: Mus musculus; test: Dose normalized AUC in mouse at 1 mg/kg, iv and 30 mg/kg, po; assay type: ADME, organism-based; conditions: in vivo
[14] = Ratio of drug uptake in brain to plasma of C57 mouse at 10 mg/kg, po after 20 hrs by LC/MS analysis; assay type: ADME, organism-based; set-up: dose 10 mg/kg, route oral; conditions: read-out: BPR
[15] = Drug uptake in C57 mouse brain at 10 mg/kg, po after 20 hrs by LC/MS analysis; assay type: ADME, organism-based; set-up: dose 10 mg/kg, route oral; conditions: read-out: Drug uptake
[16] = test system: Mus musculus; test: Ex-vivo inhibition of PrCP in heat inactivated 100% plasma of C57 mouse assessed as target engagement at 10 mg/kg, po after 20 hrs by FRET analysis; assay type: functional; set-up: scale not given: the % may be the effect or the level left
[17] = test system: Mus musculus; test: Ex-vivo inhibition of PrCP in heat inactivated 100% plasma of C57 mouse assessed as target engagement at 30 mg/kg, po after 20 hrs by FRET analysis; assay type: functional; set-up: scale not given: the % may be the effect or the level left
[18] = Half life in mouse at 1 mg/kg, iv and 30 mg/kg, po; assay type: ADME, organism-based; conditions: in vivo
[19] = Drug uptake in C57 mouse plasma at 30 mg/kg, po after 20 hrs by LC/MS analysis; assay type: ADME, organism-based; set-up: dose 30 mg/kg, route oral
[20] = Clearance in mouse at 1 mg/kg, iv and 30 mg/kg, po; assay type: ADME, organism-based; conditions: in vivo
[21] = Drug uptake in C57 mouse brain at 30 mg/kg, po after 20 hrs by LC/MS analysis; assay type: ADME, organism-based; set-up: dose 30 mg/kg, route oral; conditions: read-out: Drug uptake
[22] = Ratio of drug uptake in brain to plasma of C57 mouse at 30 mg/kg, po after 20 hrs by LC/MS analysis; assay type: ADME, organism-based; set-up: dose 30 mg/kg, route oral; conditions: read-out: BPR
[23] = Apparent permeability across pig LLC-PK1 cells at 1 uM; assay type: ADME, cell-based, Sus scrofa
[24] = test system: Mus musculus; test: Ex-vivo inhibition of PrCP in heat inactivated 100% plasma of C57 mouse assessed as target engagement calculated as [cmpd]plasma/([cmpd]plasma + Ki (heat inactivated plasma))x100 at 10 mg/kg, po after 20 hrs by FRET analysis; assay type: functional; set-up: scale not given: the % may be the effect or the level left
[25] = test system: Mus musculus; test: Ex-vivo inhibition of PrCP in heat inactivated 100% plasma of po dosed C57 mouse assessed as target engagement after 20 hrs by FRET analysis; assay type: functional; set-up: scale not given: the % may be the effect or the level left
[26] = test system: Mus musculus; test: Toxicity in po dosed C57 mouse; assay type: organism-based; conditions: in vivo
[27] = Drug uptake in C57 mouse brain at 3 mg/kg, po after 20 hrs by LC/MS analysis; assay type: ADME, organism-based; set-up: dose 3 mg/kg, route oral; conditions: read-out: Drug uptake
[28] = Ratio of drug uptake in brain to plasma of C57 mouse at 3 mg/kg, po after 20 hrs by LC/MS analysis; assay type: ADME, organism-based; set-up: dose 3 mg/kg, route oral; conditions: read-out: BPR
[29] = test system: Mus musculus; test: Ex-vivo inhibition of PrCP in heat inactivated 100% plasma of C57 mouse assessed as target engagement at 3 mg/kg, po after 20 hrs by FRET analysis; assay type: functional; set-up: scale not given: the % may be the effect or the level left
[30] = test system: Mus musculus; test: Ex-vivo inhibition of PrCP in heat inactivated 100% plasma of C57 mouse assessed as target engagement calculated as [cmpd]plasma/([cmpd]plasma + Ki (heat inactivated plasma))x100 at 3 mg/kg, po after 20 hrs by FRET analysis; assay type: functional; set-up: scale not given: the % may be the effect or the level left
[31] = Drug uptake in C57 mouse plasma at 3 mg/kg, po after 20 hrs by LC/MS analysis; assay type: ADME, organism-based; set-up: dose 3 mg/kg, route oral

Row | SMILES | pIC50 [1] | remaining at 0.5 h [2] [%] | remaining at 0.5 h [3] [%] | fraction unbound [4] | fraction unbound [5] | pKi [6] | pKi [7] | pKi [8] | other results
1 | Cc1nc(C2CCN(C(=O)[C@@H]3C[C@](C)(N)C[C@H]3c3ccc(F)cc3F)CC2)n(-c2ccc(F)c(Cl)c2)n1 | 7.32 | 93 | 91 |  |  |  |  |  | 
2 | C[C@@]1(N)C[C@@H](C(=O)N2CCC(c3ncnn3-c3ccc(F)c(Cl)c3)CC2)[C@H](c2ccc(F)cc2F)C1 | 7.80 |  |  | 0.21 | 0.15 |  |  |  | 
3 | Cc1cc(C2CCN(C(=O)[C@@H]3C[C@@](C)(N(C)C)C[C@H]3c3ccc(F)cc3F)CC2)n(-c2cc(Cl)ccc2Cl)n1 | 9.40 | 33.6 | 12 | 0.087 | 0.013 | 8.68 | 9.30 | 9.05 | 
4 | CN(C)[C@]1(C)C[C@H](C(=O)N2CCC(c3ccnn3-c3ccc(F)c(Cl)c3)CC2)[C@@H](c2ccc(F)cc2F)C1 |  | 23 | 1 | 0.144 | 0.091 |  |  |  | concentration at 20 h [11]: 305 nM; Kp at 20 h [14]: 0.09; concentration at 20 h [15]: 26 nM; Activity [25]: 38%; Activity [16]: >=100%; Activity [26]: Non-toxic; Papp at 1 µM [23]: 23.1 ×10⁻⁶ cm/s; Activity [24]: 99.6%
5 | CN(C)[C@@]1(C)C[C@H](C(=O)N2CCC(c3ccnn3-c3ccc(F)c(Cl)c3)CC2)[C@@H](c2ccc(F)cc2F)C1 |  | 34 | 2 | 0.104 | 0.132 |  |  |  | 
6 | C[C@@]1(N)C[C@H](C(=O)N2CCC(c3ccnn3-c3ccc(F)c(Cl)c3)CC2)[C@@H](c2ccc(F)cc2F)C1 | 9.00 | 73 | 20 | 0.065 | 0.035 | 8.41 | 9.15 | 8.82 | Activity [9]: 100%; concentration at 20 h [11]: 185 nM; concentration at 20 h [27]: 6 nM; Kp at 20 h [14]: 0.28; concentration at 20 h [15]: 51 nM; Activity [25]: 38%; Kp at 20 h [28]: 0.18; Activity [29]: 31%; Activity [16]: 72%; Activity [17]: >=100%; Activity [26]: Non-toxic; concentration at 20 h [19]: 2130 nM; concentration at 20 h [21]: 142 nM; Activity [30]: 84.2%; Kp at 20 h [22]: 0.07; concentration at 20 h [31]: 23 nM; Papp at 1 µM [23]: 21.7 ×10⁻⁶ cm/s; Activity [24]: 100%
7 | C[C@]1(N)C[C@H](C(=O)N2CCC(c3ccnn3-c3ccc(F)c(Cl)c3)CC2)[C@@H](c2ccc(F)cc2F)C1 | 8.59 | 89 | 33 | 0.1 | 0.061 |  |  |  | 

The next lines start with results.

Row | pIC50 [1] | remaining at 0.5 h [2] [%] | remaining at 0.5 h [3] [%] | fraction unbound [4] | fraction unbound [5] | pKi [6] | pKi [7] | pKi [8] | SMILES | other results
8 | 9.05 | 78 | 39 | 0.071 | 0.02 | 8.28 | 9.00 | 8.68 | Cc1cc(C2CCN(C(=O)[C@@H]3C[C@@](C)(N)C[C@H]3c3ccc(F)cc3F)CC2)n(-c2cc(Cl)ccc2Cl)n1 | 
9 | 9.30 |  |  | 0.064 | 0.035 | 8.35 | 9.22 | 8.82 | Cc1cc(C2CCN(C(=O)[C@@H]3C[C@@](C)(N(C)C)C[C@H]3c3ccc(F)cc3F)CC2)n(-c2ccc(F)c(Cl)c2)n1 | 
10 |  | 90 | 60 | 0.043 | 0.036 | 8.00 | 8.80 | 8.43 | Cc1cc(C2CCN(C(=O)[C@@H]3C[C@@](C)(N)C[C@H]3c3ccc(F)cc3F)CC2)n(-c2ccc(F)c(Cl)c2)n1 | Activity [9]: 99.6%; Vd [10]: 6.2 L/kg; concentration at 20 h [11]: 246 nM; bioavailability [12]: 57%; AUC/dose [13]: 1 µM·kg·h/mg; Kp at 20 h [14]: 0.18; concentration at 20 h [15]: 39 nM; Activity [16]: 62.8%; Activity [17]: >=100%; half-life [18]: 4.9 h; concentration at 20 h [19]: 2820 nM; clearance [20]: 18 mL/min/kg; concentration at 20 h [21]: 363 nM; Kp at 20 h [22]: 0.17; Papp at 1 µM [23]: 24 ×10⁻⁶ cm/s; Activity [24]: 96.1%
11 |  |  |  | 0.069 | 0.043 | 7.18 | 7.96 | 7.61 | Cc1cc(C2CCN(C(=O)[C@@H]3C[C@](C)(N)C[C@H]3c3ccc(F)cc3F)CC2)n(-c2ccc(F)c(Cl)c2)n1 | 
